# Assay results from ChEMBL document CHEMBL1201862, “PubChem BioAssay data set” (2004).
# The source made the active and inactive calls.
# What was measured:
# [1] = target: T1, High affinity choline transporter 1 (Homo sapiens, UniProt Q9GZV3); assay: human choline transporter blockers, potency – cell-based, 10-point CRC, membrane potential dye, dose response (AID 588401); format: functional;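 also: membrane potential dye fluorescence of choline-evoked depolarization via CHT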
# T1 sequence (Q9GZV3 whole entry): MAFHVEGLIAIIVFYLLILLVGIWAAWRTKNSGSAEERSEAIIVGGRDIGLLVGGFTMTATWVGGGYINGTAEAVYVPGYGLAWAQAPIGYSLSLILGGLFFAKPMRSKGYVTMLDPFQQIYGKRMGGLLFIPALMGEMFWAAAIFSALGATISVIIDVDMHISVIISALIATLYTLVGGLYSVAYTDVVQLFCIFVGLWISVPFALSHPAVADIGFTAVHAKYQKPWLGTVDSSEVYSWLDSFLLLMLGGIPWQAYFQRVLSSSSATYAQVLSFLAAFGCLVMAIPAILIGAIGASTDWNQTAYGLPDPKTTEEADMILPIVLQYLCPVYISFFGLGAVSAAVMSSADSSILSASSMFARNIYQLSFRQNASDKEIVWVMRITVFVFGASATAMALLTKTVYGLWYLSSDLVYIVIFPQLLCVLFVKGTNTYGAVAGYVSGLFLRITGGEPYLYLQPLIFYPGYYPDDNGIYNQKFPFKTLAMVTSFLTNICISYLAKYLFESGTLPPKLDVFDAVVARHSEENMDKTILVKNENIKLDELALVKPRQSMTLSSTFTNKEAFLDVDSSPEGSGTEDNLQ
# [2] = target: T1, High affinity choline transporter 1; assay: human choline transporter blockers, potency – cell-based, 5-point CRC, membrane potential dye, dose response (AID 504840); format: functional
# [3] = viability of uninfected HEp-2 cells – cell-based, HTS, cytotoxicity control for RSV inhibitor project, dose response (AID 2410); format: functional; settings: human respiratory syncytial virus
# Interleukin-8 = target: T2, Interleukin-8 (Homo sapiens, UniProt P10145); assay: Dose Response confirmation of uHTS small molecule hits for cystic fibrosis induced NFkb Inhibitors in a PAF-induced IL8 counterscreen.; format: functional; settings: read-out: IC50_Mean
# T2 sequence (P10145 whole entry): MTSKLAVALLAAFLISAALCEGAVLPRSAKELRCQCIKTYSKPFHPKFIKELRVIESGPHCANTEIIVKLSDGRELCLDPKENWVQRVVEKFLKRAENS
# [4] = general mammalian cell viability loss – inhibitor set, cherry-pick, set 2, cytotoxicity control for miR-122 modulator project, dose response (AID 720697); format: functional, cell-based
# [5] = viability loss in HeLa cells – cytotoxicity control for MgcRacGAP inhibitor project, dose response (AID 624300); format: functional
# Beta Lactamase = Beta Lactamase (Pseudomonas aeruginosa, UniProt Q932Y6); assay: BLA reporter interference, concentration series – BLA reporter cells, FRET fluorescence, artefact control for TLR9-MyD88 binding inhibitor project, dose response (AID 588341); format: cell-based;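 also: cell based assay in CHO-K1 cells stably expressing beta-lactamase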
# Sequence of Beta Lactamase (Q932Y6 whole entry, the tested form may be a part): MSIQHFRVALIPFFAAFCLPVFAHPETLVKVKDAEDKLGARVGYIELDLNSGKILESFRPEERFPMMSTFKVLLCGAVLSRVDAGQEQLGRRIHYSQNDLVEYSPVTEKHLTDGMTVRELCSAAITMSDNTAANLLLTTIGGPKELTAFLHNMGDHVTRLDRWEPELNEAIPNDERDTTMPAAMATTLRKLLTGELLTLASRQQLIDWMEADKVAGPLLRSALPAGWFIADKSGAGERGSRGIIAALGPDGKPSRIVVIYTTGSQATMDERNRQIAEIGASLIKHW
# CHO = CHO cell viability loss, potency – luminescence, cytotoxicity control for TLR9-MyD88 binding inhibitor project, dose response (AID 588339); format: functional, cell-based, hamster; settings: Cricetulus griseus;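 also: CHO cells stably coexpressing TLR9 and MyD88 fusions from primary screen; compound exposure lasted 48 hours before viability readout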
# [6] = target: Heat shock protein HSP 90-alpha (Homo sapiens, UniProt P07900); format: functional, organism-based
# [7] = target: T3, RNA-binding protein pos-1 (Caenorhabditis elegans, UniProt G5EF15); assay: disruptors of C. elegans POS-1 RNA interaction – biochemical, fluorescence polarization, dose response (AID 1964);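 also: purified POS-1 fused to maltose binding protein made in E. coli; potency of compounds blocking POS-1 binding to fluorescent RNA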
# T3 sequence (G5EF15 whole entry): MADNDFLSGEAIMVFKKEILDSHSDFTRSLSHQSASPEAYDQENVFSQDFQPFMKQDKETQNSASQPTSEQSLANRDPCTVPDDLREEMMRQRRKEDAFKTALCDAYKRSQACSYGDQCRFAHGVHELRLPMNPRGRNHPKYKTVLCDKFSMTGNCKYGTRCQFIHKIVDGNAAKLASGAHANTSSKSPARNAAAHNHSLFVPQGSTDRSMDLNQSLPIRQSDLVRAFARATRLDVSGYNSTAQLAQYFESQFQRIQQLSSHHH
# [8] = target: T4, Rac GTPase-activating protein 1 (Homo sapiens, UniProt Q9H0H5); assay: blockers of MgcRacGAP-driven Rac1 GTP hydrolysis – biochemical, ADP Hunter fluorescence, primary and confirmatory, confirmation (AID 624330); format: functional
# T4 sequence (Q9H0H5 whole entry): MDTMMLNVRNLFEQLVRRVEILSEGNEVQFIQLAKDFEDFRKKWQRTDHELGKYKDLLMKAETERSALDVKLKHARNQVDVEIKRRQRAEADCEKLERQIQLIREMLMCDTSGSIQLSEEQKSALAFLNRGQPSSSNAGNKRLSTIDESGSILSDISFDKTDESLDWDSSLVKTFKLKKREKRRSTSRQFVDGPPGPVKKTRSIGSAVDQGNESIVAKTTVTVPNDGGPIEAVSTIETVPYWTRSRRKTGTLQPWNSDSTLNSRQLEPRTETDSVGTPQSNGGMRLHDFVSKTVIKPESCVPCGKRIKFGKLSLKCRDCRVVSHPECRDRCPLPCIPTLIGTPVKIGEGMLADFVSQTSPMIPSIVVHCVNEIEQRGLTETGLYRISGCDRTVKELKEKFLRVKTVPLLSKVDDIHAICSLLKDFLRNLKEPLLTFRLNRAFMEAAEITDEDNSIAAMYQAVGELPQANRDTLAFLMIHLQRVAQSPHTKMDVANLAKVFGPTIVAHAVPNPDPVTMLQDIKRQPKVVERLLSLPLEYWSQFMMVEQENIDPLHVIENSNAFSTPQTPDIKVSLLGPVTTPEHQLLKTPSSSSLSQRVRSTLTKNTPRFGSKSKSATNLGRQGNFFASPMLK
# [9] = target: T5, Zinc finger protein mex-5 (Caenorhabditis elegans, UniProt Q9XUB2); assay: potency of MEX-5 RNA-binding blockers – biochemical, C. elegans, fluorescence polarization, dose response (AID 1960)
# T5 sequence (Q9XUB2 whole entry): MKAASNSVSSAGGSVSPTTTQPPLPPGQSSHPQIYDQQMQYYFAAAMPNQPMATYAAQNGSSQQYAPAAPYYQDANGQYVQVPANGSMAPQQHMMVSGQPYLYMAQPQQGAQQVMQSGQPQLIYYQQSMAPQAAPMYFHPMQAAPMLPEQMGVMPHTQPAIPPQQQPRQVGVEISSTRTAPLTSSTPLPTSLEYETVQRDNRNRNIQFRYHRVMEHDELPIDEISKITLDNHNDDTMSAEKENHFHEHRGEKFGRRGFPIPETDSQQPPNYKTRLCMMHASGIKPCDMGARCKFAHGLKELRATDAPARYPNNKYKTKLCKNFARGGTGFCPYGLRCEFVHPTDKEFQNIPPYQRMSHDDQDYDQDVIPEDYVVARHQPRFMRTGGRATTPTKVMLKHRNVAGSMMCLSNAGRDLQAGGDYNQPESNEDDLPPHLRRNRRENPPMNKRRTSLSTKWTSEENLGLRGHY
# Genome polyprotein = Genome polyprotein (dengue virus type 2, UniProt P29990); assay: flavivirus cap methylation enzyme inhibition – biochemical, confirmation dose response, primary screen (AID 588689); format: functional
# Sequence of Genome polyprotein (P29990 2492-3391 limits assumed): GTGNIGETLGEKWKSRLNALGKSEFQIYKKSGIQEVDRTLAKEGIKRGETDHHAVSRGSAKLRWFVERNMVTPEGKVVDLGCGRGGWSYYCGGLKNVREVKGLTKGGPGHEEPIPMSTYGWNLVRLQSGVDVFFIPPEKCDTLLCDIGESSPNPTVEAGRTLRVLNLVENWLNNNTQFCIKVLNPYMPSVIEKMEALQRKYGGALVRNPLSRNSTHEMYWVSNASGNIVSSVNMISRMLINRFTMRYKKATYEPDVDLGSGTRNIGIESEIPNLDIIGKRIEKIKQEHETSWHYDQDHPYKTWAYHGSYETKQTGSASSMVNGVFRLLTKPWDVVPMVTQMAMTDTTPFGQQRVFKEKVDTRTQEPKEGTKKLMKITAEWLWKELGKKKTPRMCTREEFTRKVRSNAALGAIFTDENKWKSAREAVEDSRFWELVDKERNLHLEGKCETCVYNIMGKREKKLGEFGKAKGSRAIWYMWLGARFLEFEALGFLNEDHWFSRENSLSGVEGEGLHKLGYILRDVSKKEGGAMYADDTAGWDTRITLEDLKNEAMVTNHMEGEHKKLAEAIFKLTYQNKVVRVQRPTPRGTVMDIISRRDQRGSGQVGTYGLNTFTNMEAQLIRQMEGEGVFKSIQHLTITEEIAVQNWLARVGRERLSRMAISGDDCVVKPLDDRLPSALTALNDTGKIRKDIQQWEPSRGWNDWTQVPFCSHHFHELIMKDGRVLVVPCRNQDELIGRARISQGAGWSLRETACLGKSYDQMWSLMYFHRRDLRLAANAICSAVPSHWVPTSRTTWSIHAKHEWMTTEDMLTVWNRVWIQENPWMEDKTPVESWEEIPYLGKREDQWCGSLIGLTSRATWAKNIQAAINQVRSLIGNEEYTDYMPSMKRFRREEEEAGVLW
# [10] = Luminescence Cell-Based Dose Retest to Confirm Inhibitors of Cancer Stem Cells. [Related pubchem assays (depositor defined):AID2717, AID2721]; format: functional; settings: Homo sapiens
# Phospholipase A2 = Phospholipase A2 (Homo sapiens, UniProt P04054); format: functional;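 also: confirmatory dose-response counterscreen on phospholipase A2, testing hits that came from an ultra-high-throughput screen for ATG4B inhibitors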
# Sequence of Phospholipase A2 (P04054 whole entry): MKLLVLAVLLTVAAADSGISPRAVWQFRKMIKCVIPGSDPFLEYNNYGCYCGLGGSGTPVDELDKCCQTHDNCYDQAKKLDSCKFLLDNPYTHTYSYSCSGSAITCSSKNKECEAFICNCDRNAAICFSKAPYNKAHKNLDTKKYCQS
# Cysteine protease ATG4B = target: T6, Cysteine protease ATG4B (Homo sapiens, UniProt Q9Y4P1); format: functional;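 also: Fluorescence-based dose-response confirmation assay measuring inhibition of ATG4B activity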
# T6 sequence (Q9Y4P1 whole entry): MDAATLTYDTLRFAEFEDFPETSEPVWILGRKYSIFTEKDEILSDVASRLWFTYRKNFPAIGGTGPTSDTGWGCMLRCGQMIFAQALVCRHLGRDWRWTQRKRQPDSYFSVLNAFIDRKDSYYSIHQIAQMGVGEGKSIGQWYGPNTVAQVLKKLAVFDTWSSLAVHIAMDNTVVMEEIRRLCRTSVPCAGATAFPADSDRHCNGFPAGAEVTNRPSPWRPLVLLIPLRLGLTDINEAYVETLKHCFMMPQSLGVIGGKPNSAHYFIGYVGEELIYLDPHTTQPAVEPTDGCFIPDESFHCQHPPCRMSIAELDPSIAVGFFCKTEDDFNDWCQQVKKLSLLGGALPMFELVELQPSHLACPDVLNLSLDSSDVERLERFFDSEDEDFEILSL
# [11] = Counterscreen for inhibitors of Trypanosoma brucei methionyl tRNA synthetase (MetRS): Luminescence-based cell-based high throughput dose response assay to identify compounds that are cytotoxic to Jurkat human T lymphocyte cells.; format: functional
# [12] = target: T7, DNA repair and recombination protein RAD54-like (Homo sapiens, UniProt Q92698); assay: RAD54 Holliday junction migration blockers – biochemical, fluorescence, cherry-picked samples, dose series, confirmation (AID 651657); format: functional
# T7 sequence (Q92698 whole entry): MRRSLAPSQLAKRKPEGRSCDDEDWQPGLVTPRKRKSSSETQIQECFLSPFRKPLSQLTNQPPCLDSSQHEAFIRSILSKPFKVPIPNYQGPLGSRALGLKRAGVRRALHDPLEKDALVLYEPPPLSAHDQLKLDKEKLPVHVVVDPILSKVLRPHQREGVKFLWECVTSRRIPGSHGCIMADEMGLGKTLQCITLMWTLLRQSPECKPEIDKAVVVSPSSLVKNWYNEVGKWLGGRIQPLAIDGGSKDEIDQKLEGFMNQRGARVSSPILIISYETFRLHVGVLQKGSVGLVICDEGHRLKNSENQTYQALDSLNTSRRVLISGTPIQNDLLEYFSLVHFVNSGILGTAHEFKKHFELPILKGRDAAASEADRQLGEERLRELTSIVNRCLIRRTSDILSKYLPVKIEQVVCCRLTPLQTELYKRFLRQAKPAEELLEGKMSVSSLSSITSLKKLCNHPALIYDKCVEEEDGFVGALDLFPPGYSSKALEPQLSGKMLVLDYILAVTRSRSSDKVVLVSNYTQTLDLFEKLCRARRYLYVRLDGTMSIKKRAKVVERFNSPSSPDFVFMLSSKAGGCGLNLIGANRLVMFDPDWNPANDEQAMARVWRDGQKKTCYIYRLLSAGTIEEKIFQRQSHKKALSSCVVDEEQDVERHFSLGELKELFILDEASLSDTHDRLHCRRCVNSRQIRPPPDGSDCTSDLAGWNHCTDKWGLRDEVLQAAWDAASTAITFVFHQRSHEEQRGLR
# [13] = target: T8, DNA repair protein RAD52 homolog (Homo sapiens, UniProt P43351); format: functional, biochemical
# T8 sequence (P43351 whole entry): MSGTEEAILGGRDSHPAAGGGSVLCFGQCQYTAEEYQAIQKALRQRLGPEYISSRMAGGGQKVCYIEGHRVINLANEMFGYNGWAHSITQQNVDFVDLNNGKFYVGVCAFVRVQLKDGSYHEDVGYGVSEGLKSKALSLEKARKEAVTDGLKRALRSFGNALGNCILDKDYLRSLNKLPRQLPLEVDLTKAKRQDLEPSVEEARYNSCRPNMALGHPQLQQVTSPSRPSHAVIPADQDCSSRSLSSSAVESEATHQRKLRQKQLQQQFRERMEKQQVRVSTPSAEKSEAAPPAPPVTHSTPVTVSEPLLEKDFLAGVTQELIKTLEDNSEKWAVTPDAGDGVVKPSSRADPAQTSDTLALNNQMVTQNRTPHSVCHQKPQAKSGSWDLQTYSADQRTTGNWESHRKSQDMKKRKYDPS
# Paired box protein Pax-8 = Paired box protein Pax-8 (Homo sapiens, UniProt Q06710); assay: PAX8 transcriptional activity inhibition in RMG-I – RMG-I cells, luciferase, cherry-pick, dose response (AID 687027); format: functional, cell-based;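 also: luciferase reporter driven by Pax8 target thyroperoxidase promoter measured by SteadyGlo luminescence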
# Sequence of Paired box protein Pax-8 (Q06710 whole entry): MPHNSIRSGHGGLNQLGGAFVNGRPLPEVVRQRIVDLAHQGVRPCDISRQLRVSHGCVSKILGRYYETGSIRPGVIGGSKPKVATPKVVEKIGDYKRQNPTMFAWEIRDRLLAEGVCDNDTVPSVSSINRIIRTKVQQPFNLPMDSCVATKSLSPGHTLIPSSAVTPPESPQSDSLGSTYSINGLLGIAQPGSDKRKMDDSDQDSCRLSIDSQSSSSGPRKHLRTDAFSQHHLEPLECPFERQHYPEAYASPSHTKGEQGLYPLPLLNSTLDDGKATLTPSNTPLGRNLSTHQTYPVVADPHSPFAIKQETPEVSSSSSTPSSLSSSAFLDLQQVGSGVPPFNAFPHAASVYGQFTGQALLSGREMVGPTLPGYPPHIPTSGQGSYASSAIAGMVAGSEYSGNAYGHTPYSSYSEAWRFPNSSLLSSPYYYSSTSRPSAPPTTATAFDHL
# [14] = system: Streptococcus sp. 'group A'; assay: Streptococcus pyogenes SK(-)GAS viability under kanamycin – luminescence, BacTiterGlo, confirmation, counter-screen for streptokinase expression inhibitor project, dose response (AID 1900); format: functional, organism-based
# Streptococcus = assay: GAS UMAA2166 growth inhibition – luminescence, BacTiterGlo, counter-screen for streptokinase expression inhibitor project, dose response (AID 1915); format: functional, organism-based;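 also: potency for reduction of bacterial viability or growth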
# [15] = activation of miR-122 Renilla sensor silencing – cell-based, Huh7 psiCHECK-miR122, Renilla luciferase, cherry-picked, dose response (AID 651956); format: functional;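 also: huh7 hepatoma cells stably carrying a psiCHECK-2 miR-122 sensor plasmid; renilla luciferase signal reporting endogenous miR-122 activity after 48 h compound exposure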
structure (smiles),measurement,setting,value
Cc1ccc(-c2csc(NC(=O)c3ccccc3Cl)c2C(=O)O)cc1,IC50,[1],1.58 µM (active)
same,IC50,[2],2.27 µM (active)
same,CC50,[3],19.4 µM (active)
Cc1nc(N)c(C#N)c(-c2cccnc2)c1-c1ccccc1,IC50,Interleukin-8,> 79 µM (inactive)
CC(C)c1ccc(CNC(=O)CSCC(=O)Nc2ccc3ccccc3c2)cc1,AC50,[4],4.3 µM (active)
N#C/C(=C/c1ccc(N2CCOCC2)o1)c1ccc(Cl)cc1,CC50,[5],100 µM (active)
Cc1cccc(N2C(=O)/C(=C\c3ccc(OC(F)F)cc3)c3ccccc3C2=O)c1,IC50,Beta Lactamase,3.9 µM (active)
same,IC50,CHO,40.4 µM (inactive)
same,AC50,[6],4.43 µM (active)
O=C(O)c1ccccc1-c1ccc(C=C2C(=O)N(c3ccccc3)C(=S)N(c3ccccc3)C2=O)o1,EC50,[7],> 300 µM (not active)
same,IC50,[8],105 µM (active)
same,EC50,[9],> 300 µM (not active)
same,IC50,Genome polyprotein,12.3 µM (active)
O=C(Nc1cccc(Cl)c1N1CCCC1)c1cccc(-c2cc3ccccc3oc2=O)c1,AC50,[10],0.262 µM (active)
same,IC50,Phospholipase A2,0.978 µM (active)
same,IC50,Cysteine protease ATG4B,0.87 µM (active)
O=S(=O)(Nc1nc2ccccc2nc1N1CCc2ccccc2C1)c1ccc(Cl)cc1,IC50,Phospholipase A2,10 µM (active)
same,IC50,Cysteine protease ATG4B,9.18 µM (active)
COc1ccc(CC(=O)OCC(=O)Nc2ccc(Br)cc2)cc1,IC50,[11],83.3 µM (inactive)
COc1ccc(CCn2c(=N)c(C(=O)NCCN3CCOCC3)cc3c(=O)n4cccc(C)c4nc32)cc1OC,AC50,[12],6.24 µM (active)
CCCCCCCCCCCCCCCC[N+](C)(C)CCl,AC50,[6],5.15 µM (active)
same,IC50,Phospholipase A2,8.15 µM (active)
same,IC50,Cysteine protease ATG4B,8.42 µM (active)
same,AC50,[13],5.5 µM (active)
C=CC(=O)/N=c1\sc2ccccc2n1-c1ccccc1,IC50,[1],1.78 µM (active)
same,IC50,[2],4.37 µM (active)
same,AC50,Paired box protein Pax-8,1.6 µM (active)
O=C(N/N=C1/CCC/C1=C(/O)C(F)(F)F)c1ccccc1O,IC50,[1],3.57 µM (active)
same,IC50,[2],2.27 µM (active)
same,EC50,[14],1.44 µM (active)
same,EC50,Streptococcus,2.75 µM (active)
C/C=C/c1ccc2c(c1)O[C@H](CN(C)C(=O)Nc1cccc(F)c1)[C@H](C)CN([C@@H](C)CO)S2(=O)=O,AC50,[15],31.9 µM (active)
Cc1nccc2c1[nH]c1ccccc12 [HARMAN],AC50,[12],58.4 µM (active)
